Source: US10183936B2, “Hepatitis B core protein allosteric modulators” (priority 2014, dated 2019)

How the values were obtained:
[1] = system: HBV viral production in AD38 cells; test: Viral load production in AD38 cells by quantitative PCR of the HBV core sequence in supernatant; format: cell-based; conditions: Hepatitis B virus, 144 h; 10 μM compound, 6 days at 37° C., viral load in supernatant compared against DMSO control wells; read-out: AD38 Viral Load (CpAM/DMSO %) at 10 μM
Procedure, shortened: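 AD38 cells seeded at 50,000/well, treated 6 days at 37° C with compound added as 10× solution in 10% DMSO. HBV core sequence in clarified supernatant quantified by TaqMan qPCR against known standards; viral load compared with DMSO control wells.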

[2] = system: AD38 cells; test: Viability of AD38 cells (Promega CellTiter-Glo) at the end of compound treatment; format: cell-based; conditions: 10 μM compound, 6 days, luminescence normalized against DMSO control wells (controls being 100%)
Procedure, shortened: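 AD38 cells seeded at 50,000/well received compound from a 10× solution in 10% DMSO and were incubated 6 days at 37° C. Viability was then read by CellTiter-Glo luminescence in tetracycline-free medium with 2% FBS and 1% DMSO, normalized to DMSO control wells (100%) and reported as percent viability.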

Row | SMILES | activity at 10 µM [1] [%] | AD38 Viability Normalized Result (CPAM/DMSO %) at 10 μM [2] [%]
1 | Cl.O=C(NCC1CCCN1)c1ccc2c(c1)NC(=O)c1ccccc1S2 (stereo not shown) [Compound 1633, 11-oxo-N-(pyrrolidin-2-ylmethyl)-10, 11-dihydrodibenzo [b,f] [1,4] thiazepine-8-carboxamide hydrochloride] | 66 | 124
2 | O=C(Nc1nccs1)c1ccc2c(c1)NC(=O)c1ccccc1S2(=O)=O [Compound 1634] | 45 | 125
3 | O=C(NCc1cnc(-c2ccccc2)nc1)c1ccc2c(c1)NC(=O)c1ccccc1S2(=O)=O [Compound 1635] | 1 | 93
4 | O=C(NCCC1CCCO1)c1ccc2c(c1)NC(=O)c1ccccc1S2(=O)=O (stereo not shown) [Compound 1636] | 0 | 111
5 | O=C(Nc1nc2ccc(F)cc2s1)c1ccc2c(c1)NC(=O)c1ccccc1S2(=O)=O [Compound 1637] | 32 | 123
